Results published in patent US4348388A, “11-Amino-11-deoxydaunorubicin and analogs” (G.D. Searle & Co., priority 1980, dated 1982).
≈ marks a conversion by molar mass, not a printed value. Where two headings read alike, the source gives them in different places.

What was measured:
[1] = system: L-1210 leukemia; test: Antineoplastic activity against L-1210 leukemia (single i.v. dose, survival vs control mice); type: in vivo, BDF1 male mice; conditions: single i.v. dose 24 hours after i.v. implant of 10^5 L-1210 cells; at optimum dose (Adriamycin 33.6, Ex. XII 27, 4-Demethoxydaunorubicin 4.5 μmoles/kg); ten mice per group
Method: The antineoplastic activity of the compounds of this invention was first established against L-1210 leukemia. The relative activities against the L-1210 leukemia and the L cell cytotoxicity was determined and compared to that of adriamycin.
Donor mice were implanted with L-1210 leukemia cells i.p. On the sixth day following implant, the mice were sacrificed. Tumor cells were collected from the peritoneal cavity, suspended in saline solution, and 10^5 cells per mouse were implanted i.v. into BDF1 male mice weighing 18-20 grams. Ten mice per treatment group were employed and the day of implantation considered as day 0. A single dose of test compound was administered by i.v. injection 24 hours following the implant of L-1210 tumor cells. The animals were observed and the survival pattern was compared with that of control mice which received the same tumor implant but were not treated with drug. Results are presented as %ILS (increase in life span over control animals) in Table 3 below.

[2] = system: L-1210 leukemias; test: Activity against L-1210 leukemia by oral or intraperitoneal administration; type: in vivo
[3] = system: P-388 leukemias; test: Activity against P-388 leukemia by oral or intraperitoneal administration; type: in vivo
[4] = system: L-cells; test: L-cell cytotoxicity; type: cell-based; conditions: 48 h
Method: Expotentially growing L-cells were treated with dilutions of Compound XII and adriamycin and ID50 (concentration of compounds giving 50% inhibition of cell growth) measured after 48 hours with the following results.

[5] = background; limits use; cited from earlier work
[6] = administered intraperitoneally, compared with intravenous

| Structure (SMILES) | % ILS (increase in life span over control animals) [1] | Survivors at day 60 [1] | activity against L-1210 leukemia [2, 6] | activity against L-1210 leukemia ([2]; administered orally) | activity against P-388 leukemia [3, 6] | activity against P-388 leukemia ([3]; administered orally) | IC50 ([4]; Ex. 19, exponentially growing L-cells, read-out: ID50 (concentration of compounds giving 50% inhibition of cell growth)) | IC50 ([4]; Ex. 20, exponentially growing L-cells, read-out: ID50 (concentration of compounds giving 50% inhibition of cell growth)) | IC50 ([4]; read-out: ID50 (concentration of compounds giving 50% inhibition of cell growth), Ex. 19, exponentially growing L-cells) | IC50 ([4]; read-out: ID50 (concentration of compounds giving 50% inhibition of cell growth), Ex. 20, exponentially growing L-cells) | cardiac toxicity [5] |
| --- | --- | --- | --- | --- | --- | --- | --- | --- | --- | --- | --- |
| CC(=O)[C@]1(O)Cc2c(O)c3c(c(O)c2[C@@H](O[C@H]2C[C@H](N)[C@H](O)[C@H](C)O2)C1)C(=O)c1ccccc1C3=O [4-Demethoxydaunorubicin] | 83% | 0 | – | – | – | – | – | – | – | – | – |
| CC(=O)[C@]1(O)Cc2c(N)c3c(c(O)c2[C@@H](O[C@H]2C[C@H](N)[C@H](O)[C@H](C)O2)C1)C(=O)c1ccccc1C3=O [Compound XII, cis-9-acetyl-11-amino-7S-[(3-amino-2,3,6-trideoxy-α-L-lyxo-hexopyranosyl)oxy]-7,8,9,10-tetrahydro-6,9-dihydroxy-5,12-naphthacenedione chloride] | 96% | 0 | less active | inactive | less active | inactive | 0.01 µg/mL | 0.015 µg/mL | – | – | – |
| COc1cccc2c1C(=O)c1c(O)c3c(c(O)c1C2=O)C[C@@](O)(C(=O)CO)C[C@@H]3O[C@H]1C[C@H](N)[C@H](O)[C@H](C)O1 [Adriamycin] | 100% | 0 | – | – | – | – | – | – | 0.063 µg/mL (≈ 0.116 µM) | 0.1 µg/mL (≈ 0.184 µM) | cardiac toxicity |
